Data taken from patent US20150374705A1, “Substances for treatment or relief of pain” (Shanghai Institues for Biological Sciences, priority 2012, published 2015).
“Also recorded” adds a separate entry of the source.

Tests used:
[1] = system: CFA induced inflammatory pain model rats (heat pain); test: CFA induced inflammatory pain model, heat pain threshold; format: in vivo; conditions: rat, 1 hour after administration
[2] = system: pentetrazol induced epilepsy in rats; test: Pentetrazol induced epilepsy assay; format: in vivo; conditions: rat, subcutaneous 1, 3, 10 and 15 mg/kg, 100 mg/kg pentetrazol 0.5 hour later
Method: Pentetrazol induced epilepsy assays: firstly, C5 or 70% PGE400 was injected to rats, and then 100 mg/kg pentetrazol was subcutaneously injected to rats half an hour later. Pentetrazol was dissolved in saline water. Then the convulsive response of rats was observed. Fatholahi standard was adopted to score the convulsive response. Grade 0, no response; Grade 1, rhythmic mouth and face spasm; Grade 2, fluctuating wandering spasm of body; Grade 3, systemic myoclonus and warped hip; Grade 4, body turning to one side; Grade 5, renvers and systemic tetanic convulsion. It took 30 minutes for observation after administration. The highest grade and the latency time from pentetrazol injection to the induction of the highest grade were collected.

[3] = system: CFA induced inflammatory pain model rats (mechanical pain); test: CFA induced inflammatory pain model, mechanical pain threshold; format: in vivo; conditions: rat, 1 hour after administration
[4] = system: SNI model rats (neuropathic pain); test: Spared nerve injury (SNI) model, neuropathic pain, mechanical pain threshold; format: in vivo; conditions: rat
Method: Male SD rats (200-250 g) were used, 6 per group in the cage. All the animals were placed under 12 hours light/cycle (i.e. 12 hours light and 12 hours dark in each day), free to food and water. All the experiments were conducted under the condition that the observers were blind to pharmaceutical treatment.
Spared nerve injury model (SNI): 10% chloral hydrate was injected intraperitoneally to anesthetize rats. […] The muscle was longitudinally separated to expose the core of sciatic nerve and the branching below: tibial nerve, common peroneal nerve and sural nerve. The tibial nerve and common peroneal nerve were ligatured and cut and small sural nerve was retained, meanwhile preventing any injury. The muscle and skin were sutured layer by layer, and then antibiotics were injected intraperitoneally for antibacterial purpose. For detailed methods, please refer to Decosterd I and Woolf C J. Spared nerve injury: an animal model of persistent peripheral neuropathic pain. 2000 August; Pain 87(2):149-58.
Method for detecting mechanical hyperalgesia in rats: firstly CFA solution was injected in the thenar of rats. After 24 hours, mechanical hyperalgesia quantitative detection was adopted to measure the paw withdrawal of rats to normal and harmless mechanical stimulation. Evaluation was conducted according to reference (Chaplan S R et al., Quantitative assessment of tactile allodynia in the rat paw. J Neurosci Methods. 1994 July; 53(1):55-63). In this method, the von Frey fibers with different bending force (equivalent to the range of 1-50 g force) were used to apply harmless mechanical stimulation. The rats were placed in organic glass box with metal mesh plate, and the von Frey fibers were applied on the surface of leg thenar. The von Frey fibers were applied vertically to the surface of thenar to generate the force that will trigger slight resistance to the leg. 2-3 seconds were maintained for every leg thenar. If the leg withdrew suddenly, positive records were recorded. The threshold was the mean of the weight that caused 50% paw withdrawal response (5-6 paw withdrawal/10 stimulations) in overall 10 stimulations.
Compounds MRK 016, C2, C3, C4, C5, C6, C7, C8 or α5IA (A5I) were dissolved in 70% PGE400 (PGE400:water=70:30 in volume). For injection dose, MRK016 was 2 mg/kg body weight; A5I was 3 mg/kg body weight; C2, C3, C4, C5, C6, C7 and C8 were 3 mg/kg body weight.
MRK016-M3 was dissolved in 90% PGE400 (PGE400:water=90:10 in volume). The doses were 10 mg/kg, 3 mg/kg, 1 mg/kg and 0.3 mg/kg, respectively for oral administration.
The method for behavioral data statistics was unpaired t-test. *, p<0.05, represents significant difference.

[5] = system: α5-GABAA receptor in central nervous system; conditions: in vivo, Jones et al. 2006; cited from earlier work
[6] = biological target: T1, Human recombinant GABAA receptor containing α1 subunit (Homo sapiens, UniProt P14867+P18507); test: Electrophysiological inverse agonist efficacy on GABA-induced current; format: cell-based; conditions: change of GABA-induced current; negative = inhibition
T1 construct: expressed in transfected cells; host or cells: 293 cell line
Method: (§1) Different subunits of GABAA receptor were expressed in cell lines, including human kidney epithelial cell line, 293 cell line or L(tk−) cell line. The cells were cultured in medium, and such cells were used as the cellular model for screening drugs to suppress pain. a subunit, β subunit and γ subunit are indispensable for one complete functional GABAA receptor.
(§2) (b) simultaneously expressing α1 subunit (GenBank accession number: NM_001127648.1), β3 subunit and γ2 subunit in 293 cell line, forming the GABAA receptor containing α1 subunit; • (c) simultaneously expressing α2 subunit (for the protein sequence, see GenBank accession number NM_000813.2), β3 subunit and γ2 subunit in 293 cell line, forming the GABAA receptor containing α2 subunit;
(§3) The inventors used electrophysiological methods to measure the inverse agonist efficacy of the substances to be measured, see the method described in literature (Ballard T M et al., RO4938581, a novel cognitive enhancer acting at GABAA alpha5 subunit-containing receptors. Psychopharmacology (Berl). 2009 January; 202 (1-3): 207-23). […] Many methods can be used by those skilled in the art to evaluate the binding capacity of the ligand of α5-GABAA receptor to the α5-GABAA receptor, including but not limiting to the method above.
(§4) Inverse agonist efficacy represents the inhibition percentage of the candidate substance on the current induced by GABA through α5-GABAA receptor=(the current intensity induced by GABA through α5-GABAA receptor with the existence of candidate substance−the current intensity induced by GABA through α5-GABAA receptor without the existence of candidate substance)/the current intensity induced by GABA through α5-GABAA receptor without the existence of candidate substance.

[7] = system: Human recombinant GABAA receptor containing α2 subunit; test: as above; format: cell-based; conditions: change of GABA-induced current; negative = inhibition
Method: as §1, §2, §3, §4

[8] = biological target: T2, Human recombinant GABAA receptor containing α2 subunit (α2, β3, γ2) (Homo sapiens, UniProt P18507+P47869); test: Competitive radioligand binding ([3H]Ro-0151788) on membranes of 293 cells, Ki; conditions: human recombinant GABAA subtype containing α2; read-out: Affinity, nM (α2)
T2 construct: expressed in transfected cells; host or cells: 293 cell line
Method: as §1
(§5) In this example, the inventors established the following cellular models:
as §2
(§6) Each of the (a) to (d) above could form a GABAA receptor with complete function.
(§7) Then, the cellular membrane was extracted and the protein concentration was measured. The competitive binding of the substances to be measured and radiolabelled compounds (e.g. 1 nM [^3H]Ro-0151788) were detected respectively to calculate the Ki value of the substances to be measured, see the method described in literature (Ballard T M et al., RO4938581, a novel cognitive enhancer acting at GABAA alpha5 subunit-containing receptors. Psychopharmacology (Berl). 2009 January; 202(1-3): 207-23). If the binding inhibition constant Ki (nM) of α5-GABAA receptor with the candidate substances in experimental group is less than the Ki of the receptor containing other a subunit (α1 subunit, α2 subunit or α3 subunit), then the candidate substance is a potential drugs for preventing, relieving or treating pain. Many methods can be used by those skilled in the art to evaluate the binding capacity of the ligand of α5-GABAA receptor to the α5-GABAA receptor, including but not limiting to the method above.

[9] = biological target: T3, Human recombinant GABAA receptor containing α1 subunit (α1, β3, γ2) (Homo sapiens, UniProt P14867+P18507); test: as above; conditions: human recombinant GABAA subtype containing α1; read-out: Affinity, nM (α1)
T3 construct: expressed in transfected cells; host or cells: 293 cell line
Method: as §1, §5, §2, §6, §7

[10] = biological target: T4, Human recombinant GABAA receptor containing α3 subunit (Homo sapiens, UniProt P18507+P34903); test: Electrophysiological inverse agonist efficacy on GABA-induced current; format: cell-based; conditions: change of GABA-induced current; negative = inhibition
T4 construct: expressed in transfected cells; host or cells: 293 cell line
Method: as §1
(§8) (d) simultaneously expressing α3 subunit (for the protein sequence, see GenBank accession number NM_000808.3), β3 subunit and γ2 subunit in 293 cell line, forming the GABAA receptor containing α3 subunit;
as §3, §4

[11] = human, Phase I; cited from earlier work
[12] = biological target: T5, Human recombinant α5-GABAA receptor (Homo sapiens, UniProt P18507+P31644); test: Electrophysiological inverse agonist efficacy on GABA-induced current; format: cell-based; conditions: change of GABA-induced current; negative = inhibition
T5 construct: expressed in transfected cells; host or cells: 293 cell line
Method: as §1
(§9) (a) simultaneously expressing α5 subunit (for the protein sequence, see GenBank accession number NM_001165037.1), β3 subunit (for the protein sequence, see GenBank accession number NM_021912.4) and γ2 subunit (for the protein sequence, see GenBank accession number NM_198904.2) in 293 cell line, forming the GABAA receptor containing α5 subunit;
as §3, §4

[13] = biological target: T6, Human recombinant GABAA receptor containing α5 subunit (α5, β3, γ2) (Homo sapiens, UniProt P18507+P31644); test: Competitive radioligand binding ([3H]Ro-0151788) on membranes of 293 cells, Ki; conditions: human recombinant GABAA subtype containing α5; read-out: Affinity, nM (α5)
T6 construct: expressed in transfected cells; host or cells: 293 cell line
Method: as §1, §5, §9, §6, §7

[14] = biological target: T7, Human recombinant GABAA receptor containing α3 subunit (α3, β3, γ2) (Homo sapiens, UniProt P18507+P34903); test: as above; conditions: human recombinant GABAA subtype containing α3; read-out: Affinity, nM (α3)
T7 construct: expressed in transfected cells; host or cells: 293 cell line
Method: as §1, §5, §8, §6, §7

[15] = biological target: T5, Human recombinant α5-GABAA receptor; conditions: Jones et al. 2006; cited from earlier work

Row | Compound | CFA induced inflammatory pain model (heat pain), analgesic effect ([1]; 3 mg/kg injection, 3 days after CFA, 3 mg/kg) | Effect on pentetrazol induced epilepsy (responsive grade and latency time) [2] | CFA induced inflammatory pain model (mechanical pan), analgesic effect ([3]; 3 mg/kg injection, 7 days after CFA, 3 mg/kg) | Neuropathic pain (SNI model), analgesic effect ([4]; 3 mg/kg subcutaneous, 14 days after SNI, 1 hour after administration, 3 mg/kg) | Suppression of neuropathic pain at different time points ([4]; subcutaneous 1 mg/kg or 3 mg/kg, 14 days after SNI, 0.5-12 hours after administration) | Binding to α5-GABAA receptor in brain / inhibition of (3H)Ro-15-1788 binding in center [5] | Suppression of heat pain ([1]; 2 mg/kg intraperitoneal, 3 days after CFA model, 2 mg/kg) | Inverse agonist efficacy, % (α1) [6] | Inverse agonist efficacy, % (α2) [7] | Ki [8] | Ki [9] | Inverse agonist efficacy, % (α3) [10] | Side effects in Phase I clinical trial [11] | Inverse agonist efficacy, % (α5) [12] | Ki [13] | Suppression of mechanical pain ([3]; 2 mg/kg intraperitoneal, 7 days after CFA model, 2 mg/kg) | Ki [14] | Suppression of neuropathic pain (mechanical pain threshold) ([4]; subcutaneous injection 2 mg/kg, 7 days after SNI model, 1 hour after administration) | Inverse agonist effect of α5-GABAA receptor [15]
1 | OCc1cc(-c2nnc3c4ccccc4c(OCc4ccccn4)nn23)no1 [Compound C5, {3-[6-(Pyridin-2-ylmethoxy)-[1,2,4]triazolo[3,4-a]phthalazin-3-yl]-isoxazol-5-yl}-methanol] | efficiently inhibit nociceptive response; also recorded: efficiently suppressed heat pain or mechanical pain response | no effect | efficiently inhibit nociceptive response; also recorded: efficiently suppressed heat pain or mechanical pain response | efficiently inhibit nociceptive response; also recorded: efficiently suppressed neuropathic pain | efficiently could inhibit nociceptive response; also recorded: efficiently suppressed neuropathic pain | – | – | – | – | – | – | – | – | – | – | – | – | – | –
2 | Cc1cc(-c2nncc3c(C(C)(C)C)c(OCc4ncnn4C)nn23)no1 [MRK016, 3-tert-butyl-7-(5-methylisoxazol-3-yl)-2-(1-methyl-1H-1,2,4-triazol-5-ylmethoxy)-pyrazolo[1,5-d]-[1,2,4]triazine] | – | – | – | – | – | can efficiently inhibit; also recorded: focused in the brain | efficiently suppressed heat pain; also recorded: efficiently suppress heat pain | −16% | 6% | 0.85 nM | 0.83 nM | −9% | front heaviness, headache and nausea and vomiting | −55% | 1.36 nM | efficiently suppressed mechanical pain; also recorded: efficiently suppress mechanical pain | 0.77 nM | efficiently suppressed neuropathic pain | –
3 | Cc1cc(-c2nncc3c(C(C)(C)CO)c(OCc4ncnn4C)nn23)no1 [MRK016-M2] | – | – | – | – | – | not capable of binding the α5-GABAA receptor in brain | – | −41% | −23% | – | 26 nM | −32% | – | −40% | 9.4 nM | – | 9.8 nM | – | significant inverse agonist effect
